From patent US20210346339A1, “THERAPEUTIC FLAVONOID BASED ANTIVIRAL AGENTS” (priority 2016, published 2021) come the findings set out here.

Data set [1] concerns cell culture-derived HCV (HCVcc). Type of data set: cell-based, Hepatitis C virus.
In data set [2] the test system is HCoV-OC43 (VR-1558). Nature of the data set: Anti coronavirus activity: viral CPE inhibition in Vero 76 cells (microscopy, neutral red). Type of data set: cell-based. To be noted: hCoV-OC43 (beta).
Data set [3] relates to Vero 76 cells.
The target of data set [4] is T1, GAK (Homo sapiens, UniProt O14976).
T1 sequence (O14976 1-1311): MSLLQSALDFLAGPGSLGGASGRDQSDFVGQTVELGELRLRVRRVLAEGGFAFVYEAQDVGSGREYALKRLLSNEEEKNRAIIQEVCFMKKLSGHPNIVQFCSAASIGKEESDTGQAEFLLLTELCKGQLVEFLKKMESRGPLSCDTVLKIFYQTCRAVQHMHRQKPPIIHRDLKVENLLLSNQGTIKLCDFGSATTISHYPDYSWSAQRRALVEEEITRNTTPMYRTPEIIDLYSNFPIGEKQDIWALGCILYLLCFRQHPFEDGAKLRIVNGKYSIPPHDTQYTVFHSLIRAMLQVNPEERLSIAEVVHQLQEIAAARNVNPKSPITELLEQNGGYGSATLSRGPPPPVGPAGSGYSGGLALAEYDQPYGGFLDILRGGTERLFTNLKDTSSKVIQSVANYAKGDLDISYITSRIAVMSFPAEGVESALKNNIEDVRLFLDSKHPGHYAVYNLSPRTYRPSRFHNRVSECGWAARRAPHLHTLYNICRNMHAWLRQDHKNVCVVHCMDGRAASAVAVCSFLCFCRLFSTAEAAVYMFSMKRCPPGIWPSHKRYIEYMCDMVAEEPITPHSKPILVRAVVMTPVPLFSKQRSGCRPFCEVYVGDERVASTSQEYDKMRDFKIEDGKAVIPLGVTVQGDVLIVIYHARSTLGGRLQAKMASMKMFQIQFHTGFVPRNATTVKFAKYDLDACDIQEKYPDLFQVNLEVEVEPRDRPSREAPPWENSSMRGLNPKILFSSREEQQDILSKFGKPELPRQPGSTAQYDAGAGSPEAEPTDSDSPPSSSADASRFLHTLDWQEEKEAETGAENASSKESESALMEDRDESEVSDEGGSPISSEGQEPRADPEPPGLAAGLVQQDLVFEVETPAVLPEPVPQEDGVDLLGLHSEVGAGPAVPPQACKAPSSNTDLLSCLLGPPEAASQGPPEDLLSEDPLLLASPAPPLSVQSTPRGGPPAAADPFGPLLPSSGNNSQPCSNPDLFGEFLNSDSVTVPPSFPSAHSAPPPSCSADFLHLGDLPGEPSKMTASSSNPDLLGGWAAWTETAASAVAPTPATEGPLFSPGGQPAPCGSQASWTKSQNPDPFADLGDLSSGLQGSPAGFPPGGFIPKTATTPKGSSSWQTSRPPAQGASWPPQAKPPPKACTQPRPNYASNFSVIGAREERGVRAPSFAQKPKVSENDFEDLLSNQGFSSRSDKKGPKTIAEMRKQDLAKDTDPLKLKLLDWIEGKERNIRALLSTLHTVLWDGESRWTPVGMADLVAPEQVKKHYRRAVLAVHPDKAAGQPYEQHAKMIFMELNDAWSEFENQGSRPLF
Nature of the data set: Kinase inhibition assay (HotSpot). Type of data set: biochemical. To be noted: 10 μM ATP; read-out: Compound IC50, GAK. From the text: (§1) In vitro profiling of lipid and tyrosine kinases was accomplished using the “HotSpot” assay platform.

The target in data set [5] is BIKE (Homo sapiens, UniProt Q9NSY1). Kind of data set: Kinase inhibition assay (HotSpot). To be noted: 10 μM ATP; read-out: Compound IC50, BIKE. The class given is biochemical.
Text: as §1

Data set [6] has as its target MNK2 (Homo sapiens, UniProt Q9HBH9). Nature of the data set: Kinase inhibition assay (HotSpot). To be noted: 10 μM ATP; read-out: Compound IC50, MNK2. Type of data set: biochemical.
Text: as §1

Data set [7] addresses CSNK2A1 (Homo sapiens, UniProt P68400). Nature of the data set: Kinase inhibition assay (HotSpot). To be noted: 10 μM ATP; read-out: Compound IC50, CSNK2A1. The class given is biochemical.
Text: as §1

Data set [8] has as its target CSNK2A2 (Homo sapiens, UniProt P19784). Nature of the data set: Kinase inhibition assay (HotSpot). The class given is biochemical. To be noted: 10 μM ATP; read-out: Compound IC50, CSNK2A2.
Text: as §1

In data set [9] the target is AAK1 (Homo sapiens, UniProt Q2M2I8). Nature of the data set: Kinase inhibition assay (HotSpot). Type of data set: biochemical. To be noted: 10 μM ATP; read-out: Compound IC50, AAK1.
Text: as §1

Data set [10] addresses PI3Kb (Homo sapiens, UniProt P42338). Nature of the data set: Kinase inhibition assay (HotSpot). The class given is biochemical. To be noted: 10 μM ATP; read-out: Compound IC50, PI3Kb.
Text: as §1

Data set [11] addresses ABL2 (Homo sapiens, UniProt P42684). Nature of the data set: Kinase inhibition assay (HotSpot). Type of data set: biochemical. To be noted: 10 μM ATP; read-out: Compound IC50, ABL2.
Text: as §1

AAK1, sequence (Q2M2I8 whole entry): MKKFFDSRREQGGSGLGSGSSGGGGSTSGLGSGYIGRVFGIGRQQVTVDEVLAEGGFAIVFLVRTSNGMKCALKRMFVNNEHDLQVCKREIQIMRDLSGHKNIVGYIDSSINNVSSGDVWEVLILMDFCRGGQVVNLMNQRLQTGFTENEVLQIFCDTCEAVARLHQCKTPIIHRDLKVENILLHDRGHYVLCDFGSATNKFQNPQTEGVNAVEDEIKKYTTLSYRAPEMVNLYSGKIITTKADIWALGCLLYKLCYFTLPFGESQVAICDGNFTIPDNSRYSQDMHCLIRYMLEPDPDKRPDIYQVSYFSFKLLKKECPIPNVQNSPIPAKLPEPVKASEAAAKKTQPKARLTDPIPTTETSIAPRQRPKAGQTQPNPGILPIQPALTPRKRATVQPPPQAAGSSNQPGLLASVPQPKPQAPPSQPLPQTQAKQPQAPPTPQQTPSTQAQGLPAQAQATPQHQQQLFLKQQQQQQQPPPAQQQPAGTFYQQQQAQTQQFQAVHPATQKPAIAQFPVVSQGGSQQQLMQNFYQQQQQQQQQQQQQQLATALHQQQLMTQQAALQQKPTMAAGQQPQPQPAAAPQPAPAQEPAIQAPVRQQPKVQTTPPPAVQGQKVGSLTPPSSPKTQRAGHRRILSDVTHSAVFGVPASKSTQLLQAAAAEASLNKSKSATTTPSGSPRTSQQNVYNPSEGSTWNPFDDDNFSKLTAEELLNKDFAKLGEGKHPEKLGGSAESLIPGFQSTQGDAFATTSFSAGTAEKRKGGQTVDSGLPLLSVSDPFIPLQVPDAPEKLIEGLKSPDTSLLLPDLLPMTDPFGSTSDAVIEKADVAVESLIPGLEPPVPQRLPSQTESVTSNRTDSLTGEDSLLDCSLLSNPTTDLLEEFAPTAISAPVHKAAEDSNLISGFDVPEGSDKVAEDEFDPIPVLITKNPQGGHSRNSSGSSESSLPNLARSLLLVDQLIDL
PI3Kb, sequence (P42338 whole entry): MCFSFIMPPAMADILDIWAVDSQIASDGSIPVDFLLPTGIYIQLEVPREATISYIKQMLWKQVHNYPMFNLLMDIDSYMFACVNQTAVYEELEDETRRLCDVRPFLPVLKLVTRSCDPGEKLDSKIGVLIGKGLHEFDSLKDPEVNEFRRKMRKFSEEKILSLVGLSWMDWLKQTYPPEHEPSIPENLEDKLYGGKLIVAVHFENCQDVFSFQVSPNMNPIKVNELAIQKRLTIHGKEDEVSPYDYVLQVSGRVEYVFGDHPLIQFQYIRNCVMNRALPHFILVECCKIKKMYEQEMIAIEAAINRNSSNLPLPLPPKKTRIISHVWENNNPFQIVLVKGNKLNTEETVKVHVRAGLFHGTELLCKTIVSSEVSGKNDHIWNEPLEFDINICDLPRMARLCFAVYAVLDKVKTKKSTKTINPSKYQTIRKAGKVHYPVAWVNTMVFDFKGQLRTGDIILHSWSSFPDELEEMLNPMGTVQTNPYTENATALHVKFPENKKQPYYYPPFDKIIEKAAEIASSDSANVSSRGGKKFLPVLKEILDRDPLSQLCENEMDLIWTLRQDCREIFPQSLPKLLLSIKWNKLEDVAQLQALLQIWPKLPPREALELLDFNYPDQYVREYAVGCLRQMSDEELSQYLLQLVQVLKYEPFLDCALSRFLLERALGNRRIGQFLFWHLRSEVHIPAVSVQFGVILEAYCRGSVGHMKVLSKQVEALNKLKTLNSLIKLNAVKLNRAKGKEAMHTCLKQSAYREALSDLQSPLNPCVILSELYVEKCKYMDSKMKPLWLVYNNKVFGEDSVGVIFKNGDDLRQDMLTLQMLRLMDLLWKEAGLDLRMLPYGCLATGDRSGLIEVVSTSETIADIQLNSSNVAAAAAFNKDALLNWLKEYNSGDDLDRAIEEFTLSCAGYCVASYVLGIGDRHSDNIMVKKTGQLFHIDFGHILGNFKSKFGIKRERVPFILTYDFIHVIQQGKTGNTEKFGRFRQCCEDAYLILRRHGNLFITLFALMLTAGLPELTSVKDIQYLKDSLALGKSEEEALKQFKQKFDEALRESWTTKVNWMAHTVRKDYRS
PI3Kb, sequence (P27986 whole entry partner): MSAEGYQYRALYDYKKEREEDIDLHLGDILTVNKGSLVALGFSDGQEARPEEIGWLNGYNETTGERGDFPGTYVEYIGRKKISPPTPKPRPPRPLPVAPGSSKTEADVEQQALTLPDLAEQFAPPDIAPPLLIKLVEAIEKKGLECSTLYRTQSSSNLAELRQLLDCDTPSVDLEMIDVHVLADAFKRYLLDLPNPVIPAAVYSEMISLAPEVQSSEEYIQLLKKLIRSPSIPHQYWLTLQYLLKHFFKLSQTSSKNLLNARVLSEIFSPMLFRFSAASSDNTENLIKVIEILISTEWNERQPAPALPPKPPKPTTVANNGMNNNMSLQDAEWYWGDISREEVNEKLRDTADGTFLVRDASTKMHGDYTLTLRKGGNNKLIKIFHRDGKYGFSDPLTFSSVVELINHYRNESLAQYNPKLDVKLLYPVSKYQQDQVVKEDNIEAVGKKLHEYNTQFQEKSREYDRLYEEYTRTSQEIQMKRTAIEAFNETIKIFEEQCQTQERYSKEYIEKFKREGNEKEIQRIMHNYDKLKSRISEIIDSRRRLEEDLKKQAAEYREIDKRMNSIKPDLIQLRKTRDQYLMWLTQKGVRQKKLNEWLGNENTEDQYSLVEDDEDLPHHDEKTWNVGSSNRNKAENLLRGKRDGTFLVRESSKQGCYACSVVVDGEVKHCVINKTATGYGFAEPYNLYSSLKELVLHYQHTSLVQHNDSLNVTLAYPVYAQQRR
CSNK2A2, sequence (P19784 whole entry): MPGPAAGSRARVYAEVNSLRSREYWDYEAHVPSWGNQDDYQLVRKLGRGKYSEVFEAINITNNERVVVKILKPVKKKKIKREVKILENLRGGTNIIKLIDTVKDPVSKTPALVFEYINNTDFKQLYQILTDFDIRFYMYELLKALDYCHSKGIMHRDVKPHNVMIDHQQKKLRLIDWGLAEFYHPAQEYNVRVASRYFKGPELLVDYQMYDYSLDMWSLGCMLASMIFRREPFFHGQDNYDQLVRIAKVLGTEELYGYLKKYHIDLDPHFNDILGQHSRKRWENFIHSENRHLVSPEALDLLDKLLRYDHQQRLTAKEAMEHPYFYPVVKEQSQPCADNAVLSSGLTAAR
CSNK2A1, sequence (P68400 whole entry): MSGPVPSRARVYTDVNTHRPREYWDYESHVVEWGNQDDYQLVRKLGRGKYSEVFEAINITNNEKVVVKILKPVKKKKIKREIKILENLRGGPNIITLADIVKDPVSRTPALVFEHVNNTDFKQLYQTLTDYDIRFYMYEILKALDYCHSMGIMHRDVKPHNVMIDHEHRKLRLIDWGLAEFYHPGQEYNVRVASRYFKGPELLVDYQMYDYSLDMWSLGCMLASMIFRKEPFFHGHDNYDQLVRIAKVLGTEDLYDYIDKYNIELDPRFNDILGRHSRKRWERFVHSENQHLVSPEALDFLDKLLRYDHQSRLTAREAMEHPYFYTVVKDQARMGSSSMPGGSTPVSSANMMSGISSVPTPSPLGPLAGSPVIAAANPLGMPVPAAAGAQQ
MNK2, sequence (Q9HBH9 whole entry): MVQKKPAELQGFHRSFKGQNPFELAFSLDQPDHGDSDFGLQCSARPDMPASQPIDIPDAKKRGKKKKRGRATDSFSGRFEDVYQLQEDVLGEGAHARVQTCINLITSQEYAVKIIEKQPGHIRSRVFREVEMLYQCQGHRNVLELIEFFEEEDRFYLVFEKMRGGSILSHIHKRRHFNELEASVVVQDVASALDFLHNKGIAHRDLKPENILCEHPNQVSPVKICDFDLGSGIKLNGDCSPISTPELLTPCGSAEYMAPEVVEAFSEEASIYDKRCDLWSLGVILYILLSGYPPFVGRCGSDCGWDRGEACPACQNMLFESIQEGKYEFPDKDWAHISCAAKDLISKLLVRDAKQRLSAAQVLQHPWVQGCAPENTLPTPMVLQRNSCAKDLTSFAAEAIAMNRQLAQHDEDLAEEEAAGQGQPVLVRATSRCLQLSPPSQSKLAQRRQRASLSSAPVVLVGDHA

In data set [1], Human interferon alpha-2b [rIFNa-2b] came in with an EC50 of 0.63 IU/mL.

On to `COc1cc(-c2cc(=O)c3c(O)cc(O)c(CC=C(C)C)c3o2)ccc1O` [FBL-03G], for which the EC50 in [2] is 420 nM. In addition, the “SI (CC50/EC50)” value in data set [2] came out at 6.9. Besides, it took 2900 nM to reach half-maximal cytotoxicity in [3] (CC50). Besides, the IC50 in data set [4] is 8 nM; in data set [5], 258 nM; in data set [6] it was 549 nM; in data set [7], 20 nM; in data set [8], 4 nM; in data set [9], 4 nM. Moreover, the IC50 came out at 136 nM in data set [10] and 274 nM in [11].

The term CC50 denotes the concentration that lowers cell viability or growth by half. A lower CC50 goes with greater toxicity to the cells. As a reminder, the IC50 is the point on the concentration scale where inhibition reaches its midpoint.
